{
  "source": "paper PMC10847306",
  "about": "“The antibacterial activity and mechanism of a novel peptide MR-22 against multidrug-resistant Escherichia coli” (Frontiers in Cellular and Infection Microbiology, 2024)",
  "system": "E. coli ATCC 25922 and E19",
  "experiment": "Reactive oxygen species measurement (DCFH-DA)",
  "assay_type": "cell-based, Escherichia coli",
  "conditions": "DCFH-DA 10 μM, MR-22 1, 2, 4 × MIC, 1 h, 37°C; ex 488/em 525 nm",
  "method": "The fluorescence probe 2’,7’-dichlorodihydrofluorescein diacetate (DCFH-DA) was used to measure the intracellular generation of ROS. The bacterial suspension (1.0 × 10^6 CFU/mL) were mixed with DCFH-DA (the final concentration of 10 μM) and incubated for at 37°C 30 min in the dark. After incubation, the suspensions were treated with MR-22 (1, 2, 4 × MIC) at the indicated concentrations for 1 h at 37°C. The fluorescence intensity was evaluated using a multi-function fluorescent enzyme marker with an excitation wavelength of 488 nm and an emission wavelength of 525 nm. N-acetylcysteine (NAC) at a concentration of 24 mM was employed as a control agent for the purpose of quenching the production of reactive oxygen species.",
  "data": [
    {"substance": "H-MAKRRKKAKKKAKKAKKRRRRR-NH2 [MR-22]", "values": [
      {"measurement": "ROS accumulation in bacteria", "result": "increased significantly"}
    ]}
  ]
}
